From ChEMBL document CHEMBL1201862, “PubChem BioAssay data set” (2004)
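Cultured in 96-well plates, cells were exposed to test compound for 48 hours across five concentrations. Abbreviation: GI50, concentration required for 50% inhibition of growth.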 Active and inactive are the calls of the source. No stated cut-off is given here; in the data, active = GI50 up to about 1.1 µM and inactive = higher.

What was measured:
Test in all cases: DTP human tumour cell line panel, 48 h
786-0 = tested on: 786-0
A549 = tested on: A549
CAKI-1 = tested on: CAKI-1
CCRF-CEM = tested on: CCRF-CEM
COLO 205 = tested on: COLO 205
DLD-1 = tested on: DLD-1
DMS-114 = tested on: DMS-114
DMS-273 = tested on: DMS-273
EKVX = tested on: EKVX
HCC 2998 = tested on: HCC 2998
HCT-116 = tested on: HCT-116
HOP-18 = tested on: HOP-18
HOP-62 = tested on: HOP-62
HOP-92 = tested on: HOP-92
HT-29 = tested on: HT-29
IGROV-1 = tested on: IGROV-1
K562 = tested on: K562
KM-20L2 = tested on: KM-20L2
KM12 = tested on: KM12
LXFL 529 = tested on: LXFL 529
M19-MEL = tested on: M19-MEL
MOLT-4 = tested on: MOLT-4
Malme-3M = tested on: Malme-3M
NCI-H226 = tested on: NCI-H226
NCI-H23 = tested on: NCI-H23
NCI-H460 = tested on: NCI-H460
NCI-H522 = tested on: NCI-H522
OVCAR-3 = tested on: OVCAR-3
OVCAR-4 = tested on: OVCAR-4
OVCAR-8 = tested on: OVCAR-8
SF-268 = tested on: SF-268
SF-295 = tested on: SF-295
SF-539 = tested on: SF-539
SK-MEL-2 = tested on: SK-MEL-2
SK-MEL-5 = tested on: SK-MEL-5
SK-OV-3 = tested on: SK-OV-3
SN12C = tested on: SN12C
SNB-19 = tested on: SNB-19
SNB-78 = tested on: SNB-78
SR = tested on: SR
SW-620 = tested on: SW-620
U-251 = tested on: U-251
UACC-62 = tested on: UACC-62

## Cc1c2cc[n+](C)cc2c(C)c2c1[nH]c1ccc(OCC(F)(F)F)cc12
786-0
  GI50: 0.378 µM (active)
A549
  GI50: 1.53 µM (inactive)
CAKI-1
  GI50: 8.34 µM (inactive)
CCRF-CEM
  GI50: 4.16 µM (inactive)
COLO 205
  GI50: 1.46 µM (inactive)
DLD-1
  GI50: 1.4 µM (inactive)
DMS-114
  GI50: 1.42 µM (inactive)
DMS-273
  GI50: 1.25 µM (inactive)
EKVX
  GI50: 15 µM (inactive)
HCC 2998
  GI50: 5.05 µM (inactive)
HCT-116
  GI50: 3.95 µM (inactive)
HOP-18
  GI50: 1.96 µM (inactive)
HOP-62
  GI50: 0.789 µM (active)
HOP-92
  GI50: 2.43 µM (inactive)
HT-29
  GI50: 2.28 µM (inactive)
IGROV-1
  GI50: 2.27 µM (inactive)
K562
  GI50: 2.65 µM (inactive)
KM-20L2
  GI50: 3.15 µM (inactive)
KM12
  GI50: 2.53 µM (inactive)
LXFL 529
  GI50: 0.501 µM (active)
M19-MEL
  GI50: 2.14 µM (inactive)
MOLT-4
  GI50: 2.61 µM (inactive)
Malme-3M
  GI50: 2.02 µM (inactive)
NCI-H226
  GI50: 0.499 µM (active)
NCI-H23
  GI50: 1.23 µM (inactive)
NCI-H460
  GI50: 1.85 µM (inactive)
NCI-H522
  GI50: 1.63 µM (inactive)
OVCAR-3
  GI50: 2.59 µM (inactive)
OVCAR-4
  GI50: 2.45 µM (inactive)
OVCAR-8
  GI50: 0.798 µM (active)
SF-268
  GI50: 0.376 µM (active)
SF-295
  GI50: 0.327 µM (active)
SF-539
  GI50: 1.25 µM (inactive)
SK-MEL-2
  GI50: 3.4 µM (inactive)
SK-MEL-5
  GI50: 1.55 µM (inactive)
SK-OV-3
  GI50: 3.89 µM (inactive)
SN12C
  GI50: 0.277 µM (active)
SNB-19
  GI50: 0.817 µM (active)
SNB-78
  GI50: 0.622 µM (active)
SR
  GI50: 2.67 µM (inactive)
SW-620
  GI50: 3.35 µM (inactive)
U-251
  GI50: 0.256 µM (active)
UACC-62
  GI50: 6.82 µM (inactive)
